The values that follow come from patent publication US9662347B2, “Method for inhibiting the induction of cell death by inhibiting the synthesis or secretion of age-albumin in cells of the mononuclear phagocyte system” (Gachon University of Industry-Academic Cooperation …, priority 2010, dated 2017).

The test system of test [1] is α-synuclein, TNF-α and AGE-albumin in human microglial cells. The class given is cell-based. The following applies: for expression level of α-synuclein or TNF-α in human microglial cells: PCR and immunoblotting; for expression level of AGE-albumin: irrespective of rotenone treatment. Here is the method: Human microglial cells were cultured at 37° C. in DMEM (Gibco, 10% FBS (Gibco), 0.1% gentamicin (Gibco), a high concentration of glucose) at 37° C. in a 5% CO2 incubator. Then, the microglial cells were exposed to rotenone (Sigma, 1 nM), a causative agent of Parkinson's disease, for 10 days or to 6-hydroxydopamine (6-OHDA) for 24 hrs to prepare a cell model of Parkinson's disease.
α-Synuclein or TNF-α is present at a high level in the brain tissue of Parkinson's disease patients.
Background: In western blotting, separated proteins are transferred to a membrane and probed.

Test [2] relates to rotenone-mediated neuronal cell death. Kind of test: Rotenone mouse model, number of neuronal cells in brain tissues (cresyl violet staining). The class given is in vivo. The following applies: rotenone mice; for level of cell death in mouse brain tissues: substance injected into brain, one week and one month, compared to PBS.
Protocol: CBL57/bL6 mice, each weighing 20-25 g, were used as experimental animals. The mice were maintained on a 12-h light-dark cycle, allowed to have access to food and water ad libitum, and acclimated for at least 1 week prior to usage. All animal experiments were approved by the Institute Animal Care and Use Committee, and were conducted humanely.
(§2) The animal models of Parkinson's disease were anaesthetized with ketamine (0.75 mg/kg body weight) and rompun (0.2 mg/kg body weight) prior to surgical procedures. For in vivo treatments, phosphate buffered saline (PBS) and sRAGE (10 ng/μL) were dissolved at a concentration of 1 mM in sterile water and kept at 4° C. until use. The head was fixed on a stereotaxic instrument before a midline incision of the scalp skin was made. The skull was pierced with a biological electric drill at the bregma (posteriorly, 0.3 mm; laterally, 2 mm) and the needle (gauge 26) on a 10-μL Hamilton syringe was lowered vertically until it reached the target area (depth, 2.5 mm). Three microliters of sRAGE were injected slowly at the rate of 1 μL per minute with an automatic microinjector. Thereafter, the syringe was removed slowly and surgical wounds were sutured with wound clips followed by topical treatment with antibiotics. For control, PBS was injected into the entorhinal cortex of normal mice.
Most mice were bred for one week and one month after injection of sRAGE. During the breeding, oral administration of rotenone still continued. Afterwards, all mice were re-anaesthetized in the same manner, and perfused transcardially with 100˜200 mL of heparinized saline at 18° C. followed by 400 mL of 4% paraformaldehyde-lysine periodate in 0.1 M sodium phosphate buffer (pH, 7.4). The brains were removed, placed in the same fixative for 4 hrs at 4° C., and then transferred into ice-cold 0.1 M phosphate-buffered saline (PBS) containing 20% sucrose. […]
The relative levels of neurons in mouse brain tissues were evaluated by cresyl violet staining after PBS, rotenone, or rotenone/sRAGE administration for one week and one month before microscopy.
The subject of test [3] is AGE-albumin, RAGE, and Bax in mouse brain tissues. Put plainly: Rotenone mouse model, fluoroimmunostaining of AGE-albumin, RAGE and Bax in brain tissues. The format is in vivo. The following applies: versus rotenone alone; one week and one month.
Protocol: as §2
Most mice were bred for one week and one month after injection of sRAGE. During the breeding, oral administration of rotenone still continued. Afterwards, all mice were re-anaesthetized in the same manner, and perfused transcardially with 100˜200 mL of heparinized saline at 18° C. followed by 400 mL of 4% paraformaldehyde-lysine periodate in 0.1 M sodium phosphate buffer (pH, 7.4). […]
Test [4] concerns AGE-albumin in human microglial cells (HMO6). Put plainly: Synthesis and secretion of AGE-albumin in human microglial cells (co-immunoprecipitation, ELISA, immunoblot). The class given is cell-based. The following applies: for amount / expression level of AGE-albumin (immunoblot): 0˜1000 μM H2O2, ascorbic acid irrespective of Aβ1-42 treatment. How it is done: (§1) For in vitro studies, the immortalized human microglial cell line HMO6 was used. HMO6 cells were grown in Dulbecco's modified Eagle's medium (DMEM, Gibco) containing a high glucose concentration, supplemented with 10% heat-inactivated fetal bovine serum (FBS, Gibco) and […] gentamycin (Sigma-Aldrich). These cells were maintained at 37° C. under 5% CO2. HMO6 cells were exposed to Aβ1-42 (Sigma-Aldrich) at concentrations from 0 to 400 nM. HMO6 cells were then harvested 6 hrs after Aβ1-42 treatment for further analysis.
Whole human microglial cell lysates prepared before and after Aβ 1-42 treatment were subjected to immunoblotting analysis. In this regard, whole cell lysates from human microglial cells before and after treatment with 0˜400 nM Aβ 1-42 were prepared with a RIPA (radioimmunoprecipitation assay) buffer containing 1 M Tris (pH 7.5), 5 M NaCl, 10% NP-40, 10% deoxycholate and a protease inhibitor cocktail (Calbiochem). All cell lysates (1 mg protein) were incubated overnight at 4° C. with 5 mg of anti-AGE (Abcam)-conjugated sepharose beads in […] of PBS. The sepharose beads were precipitated by centrifugation at 14,000 rpm for 5 min, and washed three times with 1 mL of washing buffer containing 50 mM Tris-Cl and 500 mM NaCl (pH 8.0). The IgG-bound antigen-antibody complex was resolved on a 4-12% polyacrylamide gel (Invitrogen), followed by immunoblot analysis with the respective antibodies (1:1000, Abcam).
After removal of already synthesized albumin by use of an anti-albumin antibody, intracellular and extracellular (secreted into culture media) levels of AGE-albumin were measured using ELISA. For this, human microglial cells were treated with 0-400 nM Aβ1-42, after which the culture media (0.1 mg protein) were harvested. Separately, the cells were lyzed to prepare cell lysates (0.5 mg protein). […] Following the addition of HRP-conjugated anti-mouse secondary antibody (1:1000, Vector Laboratories) to each well, color was developed with TMB (3,3′,5,5′-tetramethylbenzidine), and reaction was stopped with an equal volume of 2 M H2SO4. Absorbance at 450 nm was read on an ELISA plate reader (VERSA Max, Molecular Devices).
Aβ1-42 is known to accumulate over a long period of time by oxidative stress.
(In general: An ELISA detects its analyte on a solid surface through an enzyme-linked reagent.)

The subject of test [5] is AGE-albumin in human microglial cells. Put plainly: AGE-albumin in human microglial cell model of stroke (oxygen and glucose deprivation). The format is cell-based. The following applies: for amount / expression level of AGE-albumin in stroke model cells (immunoblot): 0˜1000 μM H2O2, ascorbic acid irrespective of hypoxia and glucose deprivation; for expression level of AGE-albumin in stroke model cells: 0, 50, 200, 500, 2000 ng/mL, hypoxic and glucose-deprived. Here is the method:
Human microglial cells were cultured at 37° C. in DMEM (Gibco, 10% FBS (Gibco), 0.1% gentamicin (Gibco), a high concentration of glucose) at 37° C. in a 5% CO2 incubator. Then, the microglial cells were exposed to glucose-free DMEM for 1 hr within a hypoxic (5% CO2 and 95% N2) chamber (Billups-Rothenberg, Del Mar, Calif.) to prepare a cell model of stroke.
Human microglial cell models of stroke were treated with HMGB1, which is known to secrete most abundantly upon stroke to excite microglial cells. Expression levels of AGE-albumin in the human microglial cell model of stroke were quantitated at various concentrations (0, 50, 200, 500, 2000 ng/mL) of HMGB1 using immunohistochemistry (IHC), ELISA, and immunoblotting.
A Human microglial cell model of stroke was exposed to various concentrations (0, 50, 200, 500, 2000 ng/mL) of the HMGB1 inhibitor glycyrrhizic acid, and quantitatively analyzed for AGE-albumin using ELISA and immunoblotting.

Test [6] deals with AGE-albumin in mouse blood monocytes. Put plainly: AGE-albumin in mouse blood monocytes (immunostaining). The class given is cell-based. The following applies: compared to non-treated cells.
Test [7] concerns AGE-albumin in human microglial cells and rat brain tissues. Kind of test: Distribution and density of AGE-albumin after Aβ1-42 treatment (immunostaining, confocal microscopy). The format is cell-based. Here is the method: as §1
Cells were grown on Lab-Tek II slide chambers (Nunc), rinsed with PBS, fixed in methanol for 15 min, and rinsed again with PBS. […] After washing the secondary antibodies with PBS three times at regular intervals of 10 min, coverslips were mounted onto glass slides using the Vectashield mounting medium (Vector Laboratories), and examined under a laser confocal fluorescence microscope (LSM-710, Carl Zeiss).
Immunohistochemistry was conducted on murine brain tissues from normal or Alzheimer's disease rats, and human brain tissues from normal adults and Alzheimer's disease individuals [S. M. Ahn et al., PLoS ONE 3, e2829 (2008)]. […] After washing the secondary antibodies three times with PBS, coverslips were mounted onto glass slides using the Vectashield mounting medium (Vector Laboratories), and observed under a laser confocal fluorescence microscope (LSM-710, Carl Zeiss). […]

Regarding `NCCc1cc(O)c(O)cc1O` [6-hydroxydopamine], the “expression level of α-synuclein or TNF-α in human microglial cells” value in test [1] is “increased”.

As for `N[C@@H](C(=O)N[C@@H]1C(=O)N2C(C(=O)O)=C(Cl)CS[C@H]12)c1ccccc1` [C-20, Cefaclor], the “level of cell death in mouse brain tissues” value in test [2] is “significantly reduced level of cell death”. For the same molecule, in test [2] (predominant recovery in the substantia nigra), the “number of neurons in the injected region versus the non-injected region” value is given as “higher number of neurons”. Moreover, the “AGE, albumin, Iba1, AGE-albumin, RAGE, and Bax expression / positive cells in mouse brain tissues” value in test [3] is reported as “reduced”.

With `CC(=O)OCC1=C(C(=O)O)N2C(=O)[C@@H](NC(=O)Cc3cccs3)[C@H]2SC1` [C-21, Cephalothin sodium], in test [2], the “level of cell death in mouse brain tissues” value is given as “significantly reduced level of cell death”. Also, in test [3], the “AGE, albumin, Iba1, AGE-albumin, RAGE, and Bax expression / positive cells in mouse brain tissues” value is listed as “reduced”.

As for `O=C1O[C@H]([C@@H](O)CO)C(O)=C1O` [ascorbic acid], the “amount / expression level of AGE-albumin (immunoblot)” value in test [4] was “drastically reduced”. Moreover, the “amount / expression level of AGE-albumin in stroke model cells (immunoblot)” value in test [5] is “drastically reduced”. Moreover, in test [1], the “expression level of AGE-albumin” value is reported as “drastically reduced”.

On to `C=C1[C@@H](C)[C@H]2[C@H](Cc3ccccc3)NC(=O)[C@]23[C@H](OC(C)=O)/C=C/[C@@](C)(O)C(=O)[C@@H](C)C/C=C/[C@H]3[C@@H]1O` [cytochalasin D], for which the “expression level of AGE-albumin” value in test [1] is “drastically reduced”.

Consider `CC1(C)[C@@H](O[C@H]2O[C@H](C(=O)O)[C@@H](O)[C@H](O)[C@H]2O[C@@H]2O[C@H](C(=O)O)[C@@H](O)[C@H](O)[C@H]2O)CC[C@]2(C)[C@H]3C(=O)C=C4[C@@H]5C[C@@](C)(C(=O)O)CC[C@]5(C)CC[C@@]4(C)[C@]3(C)CC[C@@H]12` [glycyrrhizic acid], for which the “expression level of AGE-albumin in stroke model cells” value in test [5] is “significantly decreased with an increase in the concentration”.

`OO` [hydrogen peroxide]: the “amount / expression level of AGE-albumin (immunoblot)” value in test [4] is “increased in a concentration-dependent manner”. Besides, the “amount / expression level of AGE-albumin in stroke model cells (immunoblot)” value in test [5] is reported as “increased in a concentration-dependent manner”. Besides, the “amounts of both α-synuclein and AGE-albumin” value in test [1] (sequentially exposed to rotenone and H2O2 0˜1000 μM) is “increased in a concentration-dependent manner”.

In the case of `C=C(C)[C@H]1Cc2c(ccc3c2O[C@@H]2COc4cc(OC)c(OC)cc4[C@@H]2C3=O)O1` [rotenone], the “expression level of AGE-albumin in both cell lysate and cell culture medium” value in test [1] (1 nM rotenone) was “increased”. Also, the “expression level of α-synuclein or TNF-α in human microglial cells” value in test [1] was “increased”.

Turning to “Aβ1-42: amyloid beta 1-42 (Sigma-Aldrich), activator of microglial cells”, in test [4] (0˜400 nM Aβ1-42), the “expression level of AGE-albumin in human microglial cells (co-immunoprecipitation)” value is “increased with an increase in the concentration”. Further, in test [4] (compared to non-treated lysates), the “level of AGE-albumin in human microglial cell lysates (ELISA)” value is recorded as “significant increase”. Moreover, the “expression level of AGE-albumin in mouse blood monocytes” value in test [6] is “higher expression level”. Further, the “expression level of AGE-albumin (immunostaining)” value in test [7] (human microglial cells and rat brain tissue (cerebral cortex) after exposure to Aβ1-42) was “remarkable elevation”. The “densities of AGE-albumin” value in test [7] (microglial cells and rat brain tissues after versus before Aβ1-42 treatment) is “remarkably higher”.

B1: HMGB1: high motility group protein B1, excites microglial cells upon stroke (protein, UniProt P09429 1-215, looked up)
High mobility group protein B1: MGKGDPKKPRGKMSSYAFFVQTCREEHKKKHPDASVNFSEFSKKCSERWKTMSAKEKGKFEDMAKADKARYEREMKTYIPPKGETKKKFKDPNAPKRPPSAFFLFCSEYRPKIKGEHPGLSIGDVAKKLGEMWNNTAADDKQPYEKKAAKLKEKYEKDIAAYRAKGKPDAAKKGVVKAEKSKKKKEEEEDEEDEEDEEEEEDEEDEDEEEDDDDE
B1: the “expression level of AGE-albumin in stroke model cells” value in test [5] is reported as “significantly increased with an increase in the concentration”.
